In patent EP2987533B1, “7-substituted piperazin-1-yl fluoroquinolone compounds, their use in the treatment of cancer, pharmaceutical compositions and a method for preparation” (priority 2014, dated 2016):

Key:
[1] = tested on: KM12; experiment: NCI five-dose SRB growth assay; assay type: cell-based; settings: Homo sapiens; KM12 (Colon Cancer), 48 h
[2] = tested on: SF-539; experiment: NCI five-dose SRB growth assay; assay type: cell-based; settings: Homo sapiens; SF-539 (CNS Cancer), 48 h
[3] = tested on: ACHN; experiment: NCI five-dose SRB growth assay; assay type: cell-based; settings: Homo sapiens; ACHN (Renal Cancer), 48 h
[4] = tested on: breast cancer; experiment: NCI five-dose SRB assay, subpanel average; settings: 48 h; for GI50 / CC50: Homo sapiens; for GI50: read-out: GI50 (median growth inhibitory); for CC50: read-out: LC50 (median lethal); for TGI (total growth inhibitory): average over breast cancer subpanel, five concentrations
[5] = tested on: HCT-116; experiment: NCI five-dose SRB growth assay; assay type: cell-based; settings: Homo sapiens; HCT-116 (Colon Cancer), 48 h
[6] = tested on: SNB-19; experiment: NCI five-dose SRB growth assay; assay type: cell-based; settings: Homo sapiens; SNB-19 (CNS Cancer), 48 h
[7] = tested on: HL-60(TB); experiment: NCI five-dose SRB growth assay; assay type: cell-based; settings: Homo sapiens; HL-60(TB) (Leukemia), 48 h
[8] = tested on: CAKI-1; experiment: NCI one-dose SRB growth assay; assay type: cell-based; settings: Homo sapiens; CAKI-1 (Renal Cancer), 10^-5 M, 48 h; read-out: % Growth Inhibition (GI %)
In short: (§1)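 Compounds were tested at a single concentration of 10^-5M against a panel of about 60 human tumor cell lines following the NCI protocol. After 48 h incubation, cell protein was stained with sulforhodamine B and read spectrophotometrically. Values are growth percentage relative to untreated control cells.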

[9] = tested on: 786-0; experiment: NCI one-dose SRB growth assay; assay type: cell-based; settings: Homo sapiens; 786-0 (Renal Cancer), 10^-5 M, 48 h; read-out: % Growth Inhibition (GI %)
In short: as §1

[10] = tested on: SK-OV-3; experiment: NCI one-dose SRB growth assay; assay type: cell-based; settings: Homo sapiens; SK-OV-3 (Ovarian Cancer), 10^-5 M, 48 h; read-out: % Growth Inhibition (GI %)
In short: as §1

[11] = tested on: MDA-MB-231/ATCC; experiment: NCI one-dose SRB growth assay; assay type: cell-based; settings: Homo sapiens; MDA-MB- 231/ATCC (Breast Cancer), 10^-5 M, 48 h; read-out: % Growth Inhibition (GI %)
In short: as §1

[12] = tested on: PRMI-8226; experiment: NCI one-dose SRB growth assay; assay type: cell-based; settings: Homo sapiens; PRMI-8226 (Leukemia), 10^-5 M, 48 h; read-out: % Growth Inhibition (GI %)
In short: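 Screening used the NCI Drug Evaluation Branch protocol on roughly 60 human cancer cell lines. Compound exposure: 10^-5M, 48 h. Cell mass quantified by sulforhodamine B binding, read by spectrophotometer, reported as % growth compared with untreated control.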

[13] = tested on: HL-60(TB); experiment: NCI one-dose SRB growth assay; assay type: cell-based; settings: Homo sapiens; HL-60(TB) (Leukemia), 10^-5 M, 48 h; read-out: % Growth Inhibition (GI %)
[14] = tested on: ACHN; experiment: NCI one-dose SRB growth assay; assay type: cell-based; settings: Homo sapiens; ACHN (Renal Cancer), 10^-5 M, 48 h; read-out: % Growth Inhibition (GI %)
In short: as §1

[15] = tested on: OVCAR-3; experiment: NCI one-dose SRB growth assay; assay type: cell-based; settings: Homo sapiens; OVCAR-3 (Ovarian Cancer), 10^-5 M, 48 h; read-out: % Growth Inhibition (GI %)
In short: as §1

[16] = tested on: NCI-H322M; experiment: NCI one-dose SRB growth assay; assay type: cell-based; settings: Homo sapiens; NCI-H322M (Non-Small Cell Lung Cancer), 10^-5 M, 48 h; read-out: % Growth Inhibition (GI %)
[17] = tested on: OVCAR-5; experiment: NCI one-dose SRB growth assay; assay type: cell-based; settings: Homo sapiens; OVCAR-5 (Ovarian Cancer), 10^-5 M, 48 h; read-out: % Growth Inhibition (GI %)
In short: as §1

[18] = tested on: U251; experiment: NCI one-dose SRB growth assay; assay type: cell-based; settings: Homo sapiens, U-251; U251 (CNS Cancer), 10^-5 M, 48 h; read-out: % Growth Inhibition (GI %)
In short: as §1

[19] = tested on: HCC-2998; experiment: NCI one-dose SRB growth assay; assay type: cell-based; settings: Homo sapiens; HCC-2998 (Colon Cancer), 10^-5 M, 48 h; read-out: % Growth Inhibition (GI %)
In short: as §1

[20] = tested on: NCI-H226; experiment: NCI one-dose SRB growth assay; assay type: cell-based; settings: Homo sapiens; NCI-H226 (Non-Small Cell Lung Cancer), 10^-5 M, 48 h; read-out: % Growth Inhibition (GI %)
In short: as §1

[21] = tested on: NCI-H460; experiment: NCI one-dose SRB growth assay; assay type: cell-based; settings: Homo sapiens; NCI-H460 (Non-Small Cell Lung Cancer), 10^-5 M, 48 h; read-out: % Growth Inhibition (GI %)
[22] = tested on: UO-31; experiment: NCI one-dose SRB growth assay; assay type: cell-based; settings: Homo sapiens; UO-31 (Renal Cancer), 10^-5 M, 48 h; read-out: % Growth Inhibition (GI %)
In short: as §1

[23] = tested on: UACC-62; experiment: NCI five-dose SRB growth assay; assay type: cell-based; settings: Homo sapiens; UACC-62 (Melanoma), 48 h
[24] = tested on: MALME-3M; experiment: NCI five-dose SRB growth assay; assay type: cell-based; settings: Homo sapiens; MALME-3M (Melanoma), 48 h
[25] = tested on: OVCAR-8; experiment: NCI five-dose SRB growth assay; assay type: cell-based; settings: Homo sapiens; OVCAR-8 (Ovarian Cancer), 48 h
[26] = tested on: SK-MEL-5; experiment: NCI five-dose SRB growth assay; assay type: cell-based; settings: Homo sapiens; SK-MEL-5 (Melanoma), 48 h
[27] = tested on: DU-145; experiment: NCI five-dose SRB growth assay; assay type: cell-based; settings: Homo sapiens; DU-145 (Prostate Cancer), 48 h
[28] = tested on: SR; experiment: NCI one-dose SRB growth assay; assay type: cell-based; settings: Homo sapiens; SR (Leukemia), 10^-5 M, 48 h; read-out: % Growth Inhibition (GI %)
In short: as §1

[29] = tested on: NCI-H322M; experiment: NCI five-dose SRB growth assay; assay type: cell-based; settings: Homo sapiens; NCI-H322M (Non-Small Cell Lung Cancer), 48 h

SMILES | GI50 [1] [µM] | GI50 [4] [µM] | CC50 [4] [µM] | TGI (total growth inhibitory) [4] | inhibition at 10 µM [8] [%] | inhibition at 10 µM [9] [%] | inhibition at 10 µM [10] [%] | inhibition at 10 µM [11] [%] | inhibition at 10 µM [12] [%] | inhibition at 10 µM [13] [%] | inhibition at 10 µM [14] [%] | inhibition at 10 µM [15] [%] | inhibition at 10 µM [16] [%] | inhibition at 10 µM [17] [%] | inhibition at 10 µM [18] [%] | inhibition at 10 µM [19] [%] | inhibition at 10 µM [20] [%] | inhibition at 10 µM [21] [%] | inhibition at 10 µM [22] [%] | inhibition at 10 µM [28] [%] | also measured
CCn1cc(C(=O)O)c(=O)c2cc(F)c(N3CCN(S(=O)(=O)c4ccc(Cl)cc4)CC3)cc21 [Compound 1a] | 4.07 | 2.95 | > 100 | 54.63 µM | 56.4 | 76.3 | 59.2 | 58.9 | 86.6 | 91 | 71.3 | 71.8 | 54.1 | 48.1 | 88 | 75.5 | 39.9 | 94.1 | 48.9 |  | GI50 [2]: 4.12 µM; GI50 [3]: 3.09 µM; GI50 [5]: 3.18 µM; GI50 [6]: 3.97 µM; GI50 [7]: 2.18 µM; GI50 [23]: 2.02 µM; GI50 [24]: 1.99 µM; GI50 [25]: 2.8 µM; GI50 [26]: 1.8 µM; GI50 [27]: 4.11 µM
CCn1cc(C(=O)O)c(=O)c2cc(F)c(N3CCN(S(=O)(=O)c4ccc(Cl)cc4Cl)CC3)cc21 [Compound 2a] | 3.42 | 2.51 | 88.1 | 8.44 µM | 95.2 | 81.3 | 98.3 | 74.5 | 90.9 | > 100 | > 100 | 92.1 | > 100 | 92.1 | 87.9 | 69.4 | 86.9 | 89.1 | > 100 | > 100 | GI50 [2]: 1.92 µM; GI50 [3]: 2.62 µM; GI50 [5]: 3.56 µM; GI50 [6]: 3.07 µM; GI50 [7]: 2.22 µM; GI50 [23]: 1.61 µM; GI50 [24]: 1.95 µM; GI50 [25]: 3.3 µM; GI50 [26]: 1.87 µM; GI50 [27]: 2.81 µM; GI50 [29]: 2.86 µM
O=C(O)c1cn(C2CC2)c2cc(N3CCN(S(=O)(=O)c4ccc(Cl)cc4Cl)CC3)c(F)cc2c1=O [Compound 2b] |  |  |  |  | 12.1 | < 10 | < 10 | < 10 | 21.3 | 13.1 | 14.9 | < 10 | 12.8 | < 10 | < 10 | < 10 | 39.7 | < 10 | 40 | 17.7 | 
O=C(O)c1cn(C2CC2)c2cc(N3CCN(S(=O)(=O)c4ccc(Cl)c(Cl)c4)CC3)c(F)cc2c1=O [Compound 3b] | 3.62 | 3.04 | > 100 | 81.37 µM | 96.9 | 72.2 | 73.2 | 63.4 | 95.1 | > 100 | 95 | 90.1 | 78.7 | 87.5 | 87.6 | 75.2 | 58.6 | 94.2 | 90 | > 100 | GI50 [2]: 3.39 µM; GI50 [3]: 3.1 µM; GI50 [5]: 3.86 µM; GI50 [6]: 3.25 µM; GI50 [7]: 2.04 µM; GI50 [23]: 1.75 µM; GI50 [24]: 2.3 µM; GI50 [25]: 3.33 µM; GI50 [26]: 2.04 µM; GI50 [27]: 4.31 µM; GI50 [29]: 3.24 µM
O=c1[nH]cc(F)c(=O)[nH]1 [Compound 5-FU, 5-fluorouracil, reference compound] |  | 76.4 | > 100 | c (Compounds showed values > 100µM) | 39.4 | 48.7 | 77.5 | 78.1 | 41.4 | 47.9 | 39.3 | 47.4 | 59.5 | 44.3 | 50.3 | > 100 | 69.5 | 13 | 41.3 | 24.8 | 
CCn1cc(C(=O)O)c(=O)c2cc(F)c(N3CCN(S(=O)(=O)c4c(C)cc(C)cc4C)CC3)cc21 [Compound 6a] |  |  |  |  | 10.7 | < 10 | < 10 | 16.3 | 35.9 | 26.9 | 24.2 | 10.8 | 16.5 | 11.4 | 16.6 | 17.5 | 23.1 | 17.2 | 66.9 | 35.5 | 
Cc1cc(C)c(S(=O)(=O)N2CCN(c3cc4c(cc3F)c(=O)c(C(=O)O)cn4C3CC3)CC2)c(C)c1 [Compound 6b] | 3.38 | 2.85 | > 100 | 76.89 µM | 32.9 | 24.4 | 18.4 | 15.4 | 77.7 | 91.3 | 48.7 | < 10 | 25.3 | 57.8 | 80.3 | 52.3 | 28.2 | 60.5 | 83.9 | 60.9 | GI50 [2]: 3.14 µM; GI50 [3]: 2.46 µM; GI50 [5]: 2.98 µM; GI50 [6]: 2.56 µM; GI50 [23]: 2.43 µM; GI50 [25]: 2.87 µM; GI50 [26]: 3.03 µM; GI50 [27]: 3.4 µM; GI50 [29]: 5.19 µM
